Two compounds from the NIST ThermoML archive (doi:10.1016/j.jct.2008.07.016) can be followed below.

A short description of this data set: molar enthalpy of vaporization or sublimation. Particulars: 298.15 K; Crystal; microcalorimetry.

Structures are written as SMILES. Numbers after ± are expanded uncertainties.

As to `Brc1ccc2[nH]ccc2c1` [1H-indole, 5-bromo-], the molar enthalpy was 22.1 ± 1.1 kcal/mol.
For `Brc1ccc2c(c1)CCN2` [5-Bromoindoline] the value was 21 ± 0.908 kcal/mol.
